Measured values from patent US20210236476A1, “METHODS OF TREATING CANCER WITH SMALL MOLECULE PD-L1 INHIBITORS” (CHEMOCENTRYX, INC., priority 2018, published 2021).
pIC50: −log10 of the molar value.

Molecular target: T1, human PD-L1 / human PD-1 interaction (Homo sapiens, UniProt Q9NZQ7)
T1 construct: purchased R&D (PD-L1); ACRO Biosystems (PD-1, biotin)
Test: ELISA of PD-1/PD-L1 interaction
Assay type: binding
Outline: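 Plates coated with 1 μg/mL human PD-L1 and blocked with BSA; serially diluted (1:5) compounds plus biotinylated human PD-1 (0.3 μg/mL) incubated 1 h at 37° C. Bound PD-1 detected with streptavidin-HRP/TMB, absorbance at 450 nm.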

T1 sequence (Q9NZQ7 19-239 limits assumed): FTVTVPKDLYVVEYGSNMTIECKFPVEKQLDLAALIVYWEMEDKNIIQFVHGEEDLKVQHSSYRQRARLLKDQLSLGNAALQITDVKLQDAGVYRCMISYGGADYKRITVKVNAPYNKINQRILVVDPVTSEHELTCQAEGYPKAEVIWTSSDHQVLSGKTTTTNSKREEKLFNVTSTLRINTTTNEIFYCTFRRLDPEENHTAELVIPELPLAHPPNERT

| pIC50 | Structure (SMILES) |
| --- | --- |
| > 8.30 | N#Cc1cncc(COc2cc(O[C@H]3CCc4c(-c5cccc(OCCCN6CCC(F)CC6)c5Cl)cccc43)c(Cl)cc2CN[C@H]2CCC[C@@H]2O)c1 |
| > 8.30 | CC(CO)(NCc1cc(Cl)c(O[C@H]2CCc3c(-c4cccc(OCCCN5CC6(CC(O)C6)C5)c4Cl)cccc32)cc1OCc1cncc(C#N)c1)C(=O)O (stereo partly drawn) |
| > 8.30 | CN1CCC(COc2cccc(-c3cccc4c3CC[C@@H]4Oc3cc(OCc4cncc(C#N)c4)c(CN[C@@H]4CCCC[C@@H]4O)cc3Cl)c2Cl)C1 (stereo partly drawn) |
| > 8.30 | Cc1c(OCCCN2CCCC2)cccc1-c1cccc2c1CC[C@@H]2Oc1cc(OCc2cc(C#N)cc(C#N)c2)c(CN[C@H]2CCC(=O)NC2)cc1Cl |
| > 8.30 | CCOc1cc(O[C@H]2CCc3c(-c4cccc(OCCCN5CCC5(C)C)c4C)cccc32)c(Cl)cc1CNCCO |
| > 8.30 | CCOc1cc(O[C@H]2CCc3c(-c4cccc(OCCCN5CCCC5(C)C)c4C)cccc32)c(Cl)cc1CNC[C@@H]1CCC(=O)N1 |
| > 8.30 | N#Cc1cncc(COc2cc(O[C@H]3CCc4c(-c5cccc(OCCCN6CC7(C6)CC(F)(F)C7)c5Cl)cccc43)c(Cl)cc2CN[C@@H]2CCC[C@H]2O)c1 |
| > 8.30 | CC(CO)(NCc1cc(Cl)c(O[C@H]2CCc3c(-c4cccc(OCCCN5CC6(CC(F)C6)C5)c4Cl)cccc32)cc1OCc1cncc(C#N)c1)C(=O)O (stereo partly drawn) |
| > 8.30 | N#Cc1cncc(COc2cc(O[C@H]3CCc4c(-c5cccc(OCCCN6CC7(CC(F)C7)C6)c5Cl)cccc43)c(Cl)cc2CN[C@@H]2CCCC[C@@H]2O)c1 |
| 6.30 to 8.30 | Cc1c(OCCCN2CCC(C)CC2)cccc1-c1cccc2c1CC[C@@H]2Oc1cc(OCc2cc(C#N)cc(C#N)c2)c(CN[C@H]2CCC(=O)NC2)cc1Cl |
| > 8.30 | Cc1c(OCCCN2CCC(O)CC2)cccc1-c1cccc2c1CCC2Oc1cc(OCc2cncc(C#N)c2)c(CN[C@H](C(=O)O)[C@@H](C)O)cc1Cl (stereo partly drawn) |
| > 8.30 | N#Cc1cncc(COc2cc(O[C@H]3CCc4c(-c5cccc(OCCCN6CCC(F)CC6)c5Cl)cccc43)c(Cl)cc2CN[C@H]2CCOC[C@@H]2O)c1 [drawing 235] |
| > 8.30 | COC(=O)C1(O)CCN(CCCOc2cccc(-c3cccc4c3CC[C@@H]4Oc3cc(OCc4cncc(C#N)c4)c(CN[C@H](C(=O)O)[C@@H](C)O)cc3Cl)c2C)C1 (stereo partly drawn) |
| > 8.30 | CCOc1cc(O[C@H]2CCc3c(-c4cccc(OCCCN5CCC(F)CC5)c4C)cccc32)c(Cl)cc1CN[C@@H](CO)C(=O)O |
| > 8.30 | Cc1c(OCCCN2CCC(O)CC2)cccc1-c1cccc2c1CCC2Oc1cc(OCc2cc(C#N)cc(C#N)c2)c(CN[C@@H](CO)C(=O)O)cc1Cl (stereo partly drawn) |
| > 8.30 | Cc1c(OCCCN2C3CCC2CC(O)C3)cccc1-c1cccc2c1CC[C@@H]2Oc1cc(OCc2cncc(C#N)c2)c(CNCC2CCC(=O)N2)cc1Cl (stereo partly drawn) |
| > 8.30 | CC1(C)CC(O)CCN1CCCOc1cccc(-c2cccc3c2CC[C@@H]3Oc2cc(OCc3cncc(C#N)c3)c(CN[C@@H]3CCCC[C@@H]3O)cc2Cl)c1Cl (stereo partly drawn) |
| > 8.30 | Cc1c(OCCCN2CCC(F)CC2)cccc1-c1cccc2c1CC[C@@H]2Oc1cc(OCc2cncc(C#N)c2)c(CNC[C@@H]2CCC(=O)N2)cc1Cl |
| > 8.30 | Cc1c(OCCCN2CCC(O)CC2)cccc1-c1cccc2c1CC[C@@H]2Oc1cc(OCc2cncc(C#N)c2)c(CN[C@@H](CNC(=N)N)C(=O)O)cc1Cl |
| > 8.30 | Cc1c(OCCCN2CC(F)C2)cccc1-c1cccc2c1CC[C@@H]2Oc1cc(OCc2cncc(C#N)c2)c(CNCC2CCC(=O)N2)cc1Cl (stereo partly drawn) |
| 6.30 to 8.30 | Cc1c(OCCCN2CC[C@@H](O)[C@H](F)C2)cccc1-c1cccc2c1CC[C@@H]2Oc1cc(OCc2cncc(C#N)c2)c(CN[C@H](C(=O)O)[C@@H](C)O)cc1Cl |
| > 8.30 | CCOc1cc(O[C@H]2CCc3c(-c4cccc(OCCCN5[C@H](C)CC[C@H]5C)c4C)cccc32)c(Cl)cc1CNC[C@@H]1CCC(=O)N1 |
| > 8.30 | C[C@@](CO)(NCc1cc(Cl)c(O[C@H]2CCc3c(-c4cccc(OCCCN5CCC5)c4Cl)cccc32)cc1OCc1cncc(C#N)c1)C(=O)O |

| pIC50 | Structure (SMILES) |
| --- | --- |
| > 8.30 | Cc1c(OCCCN2CCC(O)CC2)cccc1-c1cccc2c1CC[C@@H]2Oc1cc(OCc2cncc(C#N)c2)c(CN[C@H](C(=O)O)[C@@H](C)O)cc1Cl |
| > 8.30 | N#Cc1cncc(COc2cc(O[C@H]3CCc4c(-c5cccc(OCCCN6CC[C@H](F)C6)c5Cl)cccc43)c(Cl)cc2CN[C@@H]2CCCC[C@@H]2O)c1 |
| > 8.30 | CCOC(=O)[C@](C)(CO)NCc1cc(Cl)c(O[C@H]2CCc3c(-c4cccc(OCCCN5CC(O)C5)c4Cl)cccc32)cc1OCc1cncc(C#N)c1 |
| > 8.30 | CCOc1cc(O[C@H]2CCc3c(-c4cccc(OCCCN5CCC5(C)C)c4C)cccc32)c(Cl)cc1CN(C)CCCC(=O)O |
| > 8.30 | Cc1c(OCCCN2CCC(F)CC2)cccc1-c1cccc2c1CC[C@@H]2Oc1cc(OCc2cc(C#N)cc(C#N)c2)c(CNC2CCNC(=O)C2)cc1Cl (stereo partly drawn) |
| > 8.30 | CCOc1cc(O[C@H]2CCc3c(-c4cccc(OCCCN(C)C(C)(C)C)c4C)cccc32)c(Cl)cc1CNC[C@@H]1CCC(=O)N1 |
| > 8.30 | Cc1c(OCCCN2CCC(C)CC2)cccc1-c1cccc2c1CC[C@@H]2Oc1cc(OCc2cc(C#N)cc(C#N)c2)c(CNC[C@H]2CCC(=O)N2)cc1Cl |
| > 8.30 | Cc1c(OCCCN2CCC(O)CC2)cccc1-c1cccc2c1CC[C@@H]2Oc1cc(OCCCN2CC[C@@H](O)C2)c(CN[C@@H]2CCCC[C@@H]2O)cc1Cl |
| > 8.30 | N#Cc1cncc(COc2cc(O[C@H]3CCc4c(-c5cccc(OCCCN6CC7(CC(F)C7)C6)c5Cl)cccc43)c(Cl)cc2CN[C@@H]2CCC[C@H]2O)c1 |
| > 8.30 | Cc1c(OCCCN2CCC(O)CC2)cccc1-c1cccc2c1C[C@H](F)[C@@H]2Oc1cc(OCc2cncc(C#N)c2)c(CN[C@@](C)(CO)C(=O)O)cc1Cl |
| > 8.30 | N#Cc1cncc(COc2cc(O[C@H]3CCc4c(-c5cccc(OCCCN6CCNC(=O)C6)c5Cl)cccc43)c(Cl)cc2CNC2(C(=O)O)CCC2)c1 |
| > 8.30 | Cc1c(OCCCN2[C@@H](C)CC[C@@H]2C)cccc1-c1cccc2c1CC[C@@H]2Oc1cc(OCc2cc(C#N)cc(C#N)c2)c(CN[C@H]2CCC(=O)NC2)cc1Cl |
| > 8.30 | N#Cc1cncc(COc2cc(O[C@H]3CCc4c(-c5cccc(OCCCN6CCC6)c5Cl)cccc43)c(Cl)cc2CN[C@@H]2CCCC[C@@H]2O)c1 |
| > 8.30 | N#Cc1cncc(COc2cc(O[C@H]3CCc4c(-c5cccc(OCCCN6CCC(F)CC6)c5Cl)cccc43)c(Cl)cc2CN[C@@H]2CCCC[C@@H]2O)c1 |
| > 8.30 | CC(CO)(NCc1cc(Cl)c(O[C@H]2CCc3c(-c4cccc(OCCCN5CC(O)C5)c4Cl)cccc32)cc1OCc1cccnc1)C(=O)O (stereo partly drawn) |
| > 8.30 | Cc1c(OCCCN2C(C)CCC2C)cccc1-c1cccc2c1CC[C@@H]2Oc1cc(OCc2cc(C#N)cc(C#N)c2)c(CN[C@H]2CCC(=O)NC2)cc1Cl (stereo partly drawn) |
| > 8.30 | Cc1c(OCCCN2CCC(F)CC2)cccc1-c1cccc2c1CC[C@@H]2Oc1cc(OCc2cc(C#N)cc(C#N)c2)c(CN[C@@H]2CCC[C@H]2O)cc1Cl |
| > 8.30 | N#Cc1cncc(COc2cc(O[C@H]3CCc4c(-c5cccc(OCCCN6CCC(O)CC6)c5Cl)cccc43)c(Cl)cc2CNCC2CCC(=O)N2)c1 (stereo partly drawn) |
| > 8.30 | N#Cc1cncc(COc2cc(O[C@H]3CCc4c(-c5cccc(OCCCN6CC7(C6)CC(F)(F)C7)c5Cl)cccc43)c(Cl)cc2CN[C@H]2CCC[C@@H]2O)c1 |
| > 8.30 | Cc1c(OCCCN2CCC(O)CC2)cccc1-c1cccc2c1CC[C@@H]2Oc1cc(OCc2cncc(C#N)c2)c(CNCC(C)(C)O)cc1Cl |
| > 8.30 | N#Cc1cncc(COc2cc(O[C@H]3CCc4c(-c5cccc(OCCCN6CCC(F)CC6)c5Cl)cccc43)c(Cl)cc2CN[C@@H]2CCC[C@@H]2O)c1 |
| > 8.30 | N#Cc1cncc(COc2cc(O[C@H]3CCc4c(-c5cccc(OCCCN6CCC(F)CC6)c5Cl)cccc43)c(Cl)cc2CN2CC3(C2)NC(=O)NC3=O)c1 |
